From ChEMBL document CHEMBL5356967, “Design, synthesis, evaluation and optimization of novel azole analogues as potent antifungal agents” (Bioorg Med Chem, 2024)
Values after ≈ are worked out from the molar mass of the structure shown. Active and inactive are the calls of the source. No cut-off for these calls is given here.

Tests used:
Candida albicans [1] = assay: Antifungal activity against Candida albicans Y0109 assessed as inhibition of fungal growth incubated for 24 hrs by broth microdilution method; type: functional
Candida albicans [2] = assay: Antifungal activity against fluconazole-resistant Candida albicans 904 assessed as inhibition of fungal growth incubated for 24 hrs by broth microdilution method; type: functional
Candida albicans [3] = assay: Antifungal activity against Candida albicans SC5314 assessed as inhibition of fungal growth incubated for 24 hrs by broth microdilution method; type: functional
Aspergillus fumigatus = assay: Antifungal activity against Aspergillus fumigatus 0504656 assessed as inhibition of fungal growth incubated for 48 hrs by broth microdilution method; type: functional
Candida tropicalis [4] = assay: Antifungal activity against Candida tropicalis 0370354 assessed as inhibition of fungal growth incubated for 24 hrs by broth microdilution method; type: functional
Candida albicans [5] = assay: Potency index, ratio of Ketoconazole MIC80 to test compound MIC80 for antifungal activity against Candida albicans SC5314 assessed as inhibition of fungal growth incubated for 24 hrs by broth microdilution method; type: functional
Candida parapsilosis [6] = assay: Antifungal activity against Candida parapsilosis 0306392 assessed as inhibition of fungal growth incubated for 24 hrs by broth microdilution method; type: functional; conditions: Lodderomyces parapsilosis
Trichophyton rubrum = assay: Antifungal activity against Trichophyton rubrum 0501124 assessed as inhibition of fungal growth incubated for 24 hrs by broth microdilution method; type: functional
Candida albicans [7] = assay: Potency index, ratio of Ketoconazole MIC80 to test compound MIC80 for antifungal activity against Candida albicans Y0109 assessed as inhibition of fungal growth incubated for 24 hrs by broth microdilution method; type: functional
Cryptococcus neoformans [8] = assay: Antifungal activity against Cryptococcus neoformans ATCCBLS108 assessed as inhibition of fungal growth incubated for 72 hrs by broth microdilution method; type: functional
Candida albicans [9] = assay: Antifungal activity against fluconazole-resistant Candida albicans 901 assessed as inhibition of fungal growth incubated for 24 hrs by broth microdilution method; type: functional
Candida albicans [10] = assay: Potency index, ratio of Fluconazole MIC80 to test compound MIC80 for antifungal activity against Candida albicans SC5314 assessed as inhibition of fungal growth incubated for 24 hrs by broth microdilution method; type: functional
Candida albicans [11] = assay: Potency index, ratio of Fluconazole MIC80 to test compound MIC80 for antifungal activity against Candida albicans Y0109 assessed as inhibition of fungal growth incubated for 24 hrs by broth microdilution method; type: functional
Nannizzia gypsea = assay: Antifungal activity against Microsporum gypseum 0310388 assessed as inhibition of fungal growth incubated for 24 hrs by broth microdilution method; type: functional
NIH3T3 = assay: Cytotoxicity against mouse NIH/3T3 cells assessed as reduction in cell viability at below 16 microg/ml incubated for 24 hrs by CCK-8 assay; type: toxicity, cell-based; conditions: nih3t3, 24 h, dose < 16 µg/ml
Cryptococcus neoformans [12] = assay: Antifungal activity against Cryptococcus neoformans ATCCBLS108 assessed as inhibition of fungal growth at 4 ug/ml incubated for 48 hrs by spot assay; type: functional, organism-based; conditions: dose 4.0 µg/ml
Candida parapsilosis [13] = assay: Antifungal activity against Candida parapsilosis 0306392 assessed as inhibition of fungal growth at 4 ug/ml incubated for 48 hrs by spot assay; type: functional, organism-based; conditions: dose 4.0 µg/ml
Candida albicans [14] = assay: Antifungal activity against fluconazole-resistant Candida albicans 904 assessed as inhibition of fungal growth at 4 ug/ml incubated for 48 hrs by spot assay; type: functional, organism-based; conditions: dose 4.0 µg/ml
Candida tropicalis [15] = assay: Antifungal activity against Candida tropicalis 0370354 assessed as inhibition of fungal growth at 4 ug/ml incubated for 48 hrs by spot assay; type: functional, organism-based; conditions: dose 4.0 µg/ml
Candida albicans [16] = assay: Antifungal activity against fluconazole-resistant Candida albicans 901 assessed as inhibition of fungal growth at 4 ug/ml incubated for 48 hrs by spot assay; type: functional, organism-based; conditions: dose 4.0 µg/ml
Candida albicans [17] = assay: Antifungal activity against Candida albicans SC5314 assessed as inhibition of fungal growth at 4 ug/ml incubated for 48 hrs by spot assay; type: functional, organism-based; conditions: dose 4.0 µg/ml
Candida parapsilosis [18] = assay: Potency index, ratio of Itraconazole MIC80 to test compound MIC80 for antifungal activity against Candida parapsilosis 0306392 assessed as inhibition of fungal growth incubated for 24 hrs by broth microdilution method; type: functional
Candida parapsilosis [19] = assay: Potency index, ratio of Fluconazole MIC80 to test compound MIC80 for antifungal activity against Candida parapsilosis 0306392 assessed as inhibition of fungal growth incubated for 24 hrs by broth microdilution method; type: functional
Candida parapsilosis [20] = assay: Potency index, ratio of Ketoconazole MIC80 to test compound MIC80 for antifungal activity against Candida parapsilosis 0306392 assessed as inhibition of fungal growth incubated for 24 hrs by broth microdilution method; type: functional

| SMILES | MIC80 (Candida albicans [1]) | MIC80 (Candida albicans [2]) | MIC80 (Candida albicans [3]) | MIC80 (Aspergillus fumigatus) | MIC80 (Candida tropicalis [4]) | Ratio (Candida albicans [5]) | MIC80 (Candida parapsilosis [6]) | MIC80 (Trichophyton rubrum) | Ratio (Candida albicans [7]) | MIC80 (Cryptococcus neoformans [8]) | MIC80 (Candida albicans [9]) | Ratio (Candida albicans [10]) | Ratio (Candida albicans [11]) | MIC80 (Nannizzia gypsea) | Activity (NIH3T3) | Activity (Cryptococcus neoformans [12]) | Activity (Candida parapsilosis [13]) | Activity (Candida albicans [14]) | Activity (Candida tropicalis [15]) | Activity (Candida albicans [16]) | other results |
| --- | --- | --- | --- | --- | --- | --- | --- | --- | --- | --- | --- | --- | --- | --- | --- | --- | --- | --- | --- | --- | --- |
| OCCC1CCN(CCc2cn(C[C@H]3CO[C@](Cn4ccnc4)(c4ccc(O)cc4F)O3)nn2)CC1 (mixture of isomers) | 0.016 µg/mL | 16 µg/mL | 0.016 µg/mL | > 64 µg/mL | 1 µg/mL | 64 | 0.125 µg/mL | 0.125 µg/mL | 64 | 0.125 µg/mL | 2 µg/mL | 16 | 16 | 0.25 µg/mL | Non-Toxic | – | – | – | – | – | – |
| OCC1CCN(CCc2cn(C[C@H]3CO[C@](Cn4ccnc4)(c4ccc(O)cc4F)O3)nn2)CC1 (mixture of isomers) | 0.016 µg/mL | 8 µg/mL | 0.016 µg/mL | 16 µg/mL | 0.063 µg/mL | 64 | 0.063 µg/mL | 0.5 µg/mL | 64 | 0.063 µg/mL | 2 µg/mL | 16 | 16 | 0.25 µg/mL | Non-Toxic | Active | Active | Active | Active | Active | Activity (Candida albicans [17]): Active |
| Oc1ccc([C@@]2(Cn3ccnc3)OC[C@H](Cn3cc(CCN4CCOCC4)nn3)O2)c(F)c1 (mixture of isomers) | 0.063 µg/mL | – | 0.063 µg/mL | > 64 µg/mL | 0.125 µg/mL | – | 0.125 µg/mL | 0.5 µg/mL | – | 0.063 µg/mL | – | – | – | 0.25 µg/mL | – | – | – | – | – | – | Ratio (Candida parapsilosis [18]): 4; Ratio (Candida parapsilosis [19]): 16; Ratio (Candida parapsilosis [20]): 32 |
| OC(Cn1cncn1)(Cn1cncn1)c1ccc(F)cc1F [FLUCONAZOLE] | 0.25 µg/mL (≈ 0.816 µM) | > 64 µg/mL | 0.25 µg/mL (≈ 0.816 µM) | > 64 µg/mL | 16 µg/mL (≈ 52.2 µM) | – | 1 µg/mL (≈ 3.27 µM) | 4 µg/mL (≈ 13.1 µM) | – | 1 µg/mL (≈ 3.27 µM) | > 64 µg/mL | – | – | 1 µg/mL (≈ 3.27 µM) | – | Active | Active | inactive | Active | inactive | Activity (Candida albicans [17]): Active |
| Oc1ccc([C@@]2(Cn3ccnc3)OC[C@H](Cn3cc(CCN4CCCCC4)nn3)O2)c(F)c1 (mixture of isomers) | 0.063 µg/mL | – | 0.063 µg/mL | > 64 µg/mL | 0.125 µg/mL | – | 0.063 µg/mL | 0.25 µg/mL | – | 0.063 µg/mL | – | – | – | 0.25 µg/mL | – | – | – | – | – | – | Ratio (Candida parapsilosis [18]): 4; Ratio (Candida parapsilosis [19]): 16; Ratio (Candida parapsilosis [20]): 32 |
